The results in this text go back to patent US20180200223A1, “APPLICATION OF NARINGENIN AND NARINGIN IN TUMOR RADIOTHERAPY” (INSTITUTE OF BIOPHYSICS CHINESE ACADEMY OF SCIENCES, priority 2015, published 2018).

Experiment [1] concerns inflammatory cytokine IL-1β. The experiment is described as follows: DNA fragment-induced IL-1β release from primary peritoneal macrophages (ELISA). The class given is cell-based, mouse. As to conditions: 100 μM pretreatment 2 h, DNA fragments 100 ng/mL 24 h, supernatant ELISA. On the procedure:
4% Brewer thioglycollate medium (1.5 ml/mouse) was intraperitoneally injected. Four days later, washing the abdominal cavity of these mice with serum-free medium (DMEM) (10 ml/mouse). The lavage fluids were collected and centrifuged at 1300 rpm for 5 minutes. The cell pellet was resuspended and seeded into a 24-well plate at the concentration of 2×10^6 cells/well. Two hours later, the non-adherent cells were carefully removed and the remaining adherent cells are primary peritoneal macrophages. Identification: Macrophage surface marker F4/80 was detected by flow cytometry using PE-labelled anti-F4/80 antibody (ebioscience). […] Sample treatment: The macrophages were pretreated with 100 μM naringenin (Nar) for 2 h, and then were stimulated with DNA fragments (100 ng/mL) for 24h. The supernatants were collected and the concentration of inflammatory cytokine IL-1β (pg/mL) in the supernatant was measured by ELISA.
(In general: ELISA stands for enzyme-linked immunosorbent assay.)

Experiment [2] relates to 4T1 breast tumor with lung metastasis. The experiment in a line: 4T1 breast tumor lung metastasis mice with lung irradiation: lung injury, nodules, cytokines. The class given is in vivo, Balb/C mice. The protocol:
(1) Resuscitation and culture of 4T1 cells: Cell culture hood need to be sterilized by UV for 30 min before resuscitating the 4T1 cells. Equilibrate the RPMI 1640 culture medium (containing 10% fetal bovine serum) to room temperature for further application. The cryovial containing tumor cells are taken from liquid nitrogen storage and immediately put into a 37° C. water bath, shaking quickly until the cells are completely dissolved. Transfer the cells into a cell culture flask with 10-15 ml medium to suspend the sedimentary cells. After adjusting the concentration of the cells, culture the cells in an incubator with a saturated humidified atmosphere containing 5% (v/v) CO2 at 37° C. Replace fresh medium every day during. Digest the cells by 0.25% trypsin when the convergence of the cells reaches 90%, and then subculture the cells at a ratio of 1:3. On the day of experiment, we collect the cells by digesting the cells with 0.25% trypsin, then neutralize the trypsin with RPMI 1640 with 10% fetal bovine serum. Centrifuge the cells at 800 rpm, and then resuspend the cells in sterile PBS. After counting the density of cells, adjust the cells to 1×10^5/ml for tumor cells inoculation. (2) 4T1 cells are mixed well before inoculation. Pipet 0.3 ml of cells by a 1 ml sterile syringe, and inject 0.1 ml of cells per mouse (namely 1×10^4 4 T1 cells per mouse). (1) 4T1 murine breast tumor cell line was used to inoculate the tail vein of Balb/C mice to form lung metastatic tumors. 1×10^4 4 T1 cells were intravenously injected into the tail vein per mouse, and 10-15 days later nodules would develop in lung. (2) Set the day of inoculation as day 0. 200 mg/kg naringenin (Nar) (suspended in 1% CMC-Na) was administered orally to the mice at day 12 day after inoculation, namely 3 days before irradiation on the lungs. The mice received a 12 Gy of γ-ray irradiation once at day 14 after inoculation and keep naringenin administration. A part of the mice in each group were sacrificed at day 28 after inoculation and the blood, lung tissues were collected while the lungs were weighed. The tumor nodules in the lungs were observed under the condition of without destroying the integrity of lung tissues. Serum were separated and assayed for cytokines such as IL-6, IL-113, IFN-γ, etc. The lung tissues collected at day 28 after inoculation were used for biopsy and the observation of lung injury as well as inflammatory cells infiltration. The rest animals were used for survival observation. The mice in this experiment are separated into 4 groups as follows: • 1) Normal control group (Normal) • 2) 4T1 tumor-bearing mice without irradiation group (4T1) • 3) 4T1 tumor-bearing mice receiving lung irradiation without naringenin administration group (4T1+IR) • 4) 4T1 tumor-bearing mice receiving lung irradiation with naringenin administration group (4T1+IR+Nar) 3 groups of mice were inoculated with 4T1 tumor cells. Each group contains 12 mice with half male and half female which were fed in separate cages, and each cage contains 6 mice.

For experiment [3] the test system is unchanged. The experiment in a line: Survival of mice bearing 4T1 breast tumor with lung metastasis after radiotherapy. The class given is in vivo, Balb/c mice. On the procedure: (1) Resuscitation and culture of 4T1 cells: Cell culture hood need to be sterilized by UV for 30 min before resuscitating the 4T1 cells. Equilibrate the RPMI 1640 culture medium (containing 10% fetal bovine serum) to room temperature for further application. The cryovial containing tumor cells are taken from liquid nitrogen storage and immediately put into a 37° C. water bath, shaking quickly until the cells are completely dissolved. Transfer the cells into a cell culture flask with 10-15 ml medium to suspend the sedimentary cells. After adjusting the concentration of the cells, culture the cells in an incubator with a saturated humidified atmosphere containing 5% (v/v) CO2 at 37° C. Replace fresh medium every day during. Digest the cells by 0.25% trypsin when the convergence of the cells reaches 90%, and then subculture the cells at a ratio of 1:3. On the day of experiment, we collect the cells by digesting the cells with 0.25% trypsin, then neutralize the trypsin with RPMI 1640 with 10% fetal bovine serum. Centrifuge the cells at 800 rpm, and then resuspend the cells in sterile PBS. After counting the density of cells, adjust the cells to 1×10^5/ml for tumor cells inoculation. (2) 4T1 cells are mixed well before inoculation. Pipet 0.3 ml of cells by a 1 ml sterile syringe, and inject 0.1 ml of cells per mouse (namely 1×10^4 4 T1 cells per mouse). (1) 4T1 murine breast tumor cell line was intravenously injected to form lung metastatic tumors in Balb/c mice. Lung metastatic nodules would develop about 10-15 days after 1×10^4 4 T1 cells were inoculated. (2) Set the day of inoculation as day 0, at day 12 after inoculation, different doses of naringenin (Nar), namely 50, 100 and 200 mg/kg (suspended in 1% CMC-Na), were administered orally. The mice received γ-ray irradiation (8 Gy×2 f) at day 14 and day 15 after inoculation. […] The administration of either naringenin or dexamethasone plus cefixime continued until the mice started to die, and the survivals were observed and recorded. […]

The nature of experiment [4]: Total antioxidant capacity (FRAP method). As to conditions: 27 μM, absorbance 593 nm. On the procedure:
The total antioxidant capacity of several flavonoids was detected by the total antioxidant capacity test kit (FRAP method). The principle of the FRAP method is that the antioxidant can reduce ferric-tripyridyltriazine (Fe^3+-TPTZ) to produce a blue Fe^2+-TPTZ under an acidic condition. Measuring the blue Fe^2+-TPTZ at a wavelength of 593 nm to access the antioxidant capacity of the sample. Since the reaction is carried out under an acidic condition, some of the endogenous interference factors can be excluded. (1) Prepare proper amount of FRAP working solution according to the samples numbers referring to the following table. The FRAP working solution was incubated at 37° C. and used no longer than 1-2 hours. Prepare 10 species of flavonoids: quercetin (Que), daidzein (Dai), kaempferol (Kae), apigenin (Api), naringenin (Nar), genistein (Gen), hesperidin (Her), luteolin (Lut), chrysin (Chr) and nobiletin (Nob). Make the final concentration of each flavonoid to 27 μM. Dissolve 27.8 mg of FeSO4.7H2O provided by this kit and dilute to 1 ml to make the concentration to 100 mM. Take an appropriate amount of FeSO4 solution and dilute it to 0.15, 0.3, 0.6, 1.2 and 1.5 mM, respectively. Distilled water or sample preparation solution was used for the preparation of the standards. […] (3) Incubate the plate at 37° C. for 3-5 min, and then determine the absorbance at 593 nm. […]

Experiment [5] concerns LLC lung tumor. The experiment in a line: LLC lung tumor bearing mice with lung irradiation. The class given is in vivo, C57B6/L mice. An excerpt:
(1) LLC murine lung cancer cell line was used to intravenously inoculate the C57B6/L mice to form lung metastatic tumors. About 24 days after 5×10^5 LLC cells were inoculated, nodules in the lung would develop. (2) The mice were divided into 4 groups, and each group contains 10 mice. The grouping methods are as followed: 1) Normal control group (Normal); 2) LLC tumor-bearing mice without irradiation group (LLC); 3) LLC tumor-bearing mice receiving lung irradiation without naringenin administration group (LLC+IR); 4) LLC tumor-bearing mice receiving lung irradiation with naringenin (Nar) administration group (LLC+IR+Nar); Set the day of inoculation as day 0. (6) 100 mg/kg naringenin (Nar) (suspended in 1% CMC-Na) was administered orally to each of the mice in LLC+IR+Nar group at day 12 after inoculation (namely 3 days before lung irradiation); (7) The mice received γ-ray irradiation with a dose of 12 Gy per mouse per time at day 14 after inoculation; (8) Continue to orally administrate 100 mg/kg naringenin (Nar) (suspended in 1% CMC-Na) to each of the mice in LLC+IR+Nar group at day 15 day after inoculation (namely 1 day after lung irradiation); (9) At day 21 after inoculation, 5 animals in each group were randomly selected for sample collection. After dissection, the blood and lung tissues were collected, and the lungs were weighed. Then the number of tumor nodules in the lungs were counted without destroying the complete structure of lung tissues. (10) At day 37 after inoculation, the remaining animals in each group were sacrificed and dissected. The blood and lung tissues were collected, and the lungs were weighed. Then the number of tumor nodules in the lungs were counted without destroying the complete structure of lung tissues. Serum was separated and assayed for inflammatory cytokines such as IL-6, IL-113, IFN-γ, etc. The lung tissues were used for biopsy and the observation of lung injury and inflammatory cells infiltration. […]

Where [6] appears, read: 200 mg/kg oral, 12 Gy γ-ray, compared to 4T1+IR group.

Take `O=C1C[C@@H](c2ccc(O)cc2)Oc2cc(O)cc(O)c21` [naringenin]: the “release of inflammatory cytokine IL-1β” value in experiment [1] is “significantly reduces”. Further, the “number of tumor nodules in lungs” value in experiment [2] (200 mg/kg oral from day 12, 12 Gy γ-ray at day 14, day 28, compared to 4T1 group and 4T1+IR group) is reported as “decreased”. Moreover, in experiment [2] (200 mg/kg oral, 12 Gy γ-ray, day 28, 4T1+IR+Nar vs 4T1+IR), the “lung injury and fibrosis (pathological analysis)” value was “markedly alleviated”. Moreover, in experiment [2] (setting [6]), the “serum level of IFN-γ” value is “significantly changed”, the “serum level of IL-1β” value is “significantly changed” and the “serum level of IL-6” value is recorded as “significantly changed”. The “survival of tumor-bearing mice compared with positive drugs (DXM+CXL)” value in experiment [3] (100 mg/kg oral vs dexamethasone 0.25 mg/kg plus cefixime 200 mg/kg) is reported as “improvement in the survival”. The “sensitizing/synergizing effect combined with radiotherapy (survival)” value in experiment [3] (100 mg/kg oral, compared among the 3 doses) is “highest sensitizing/synergizing effect”. In experiment [3] (50, 100 and 200 mg/kg oral, γ-ray 8 Gy×2 f, compared with 4T1+IR group), the “survival of tumor-bearing mice” value was “significantly prolonged”. Moreover, the antioxidant capacity entry in experiment [4] was “very weak”. The “number of tumor nodules in lungs” value in experiment [5] (100 mg/kg oral, 12 Gy γ-ray at day 14, compared to LLC and LLC+IR group) is “significantly decreased”. Also, in experiment [5] (100 mg/kg oral, 12 Gy γ-ray, LLC+IR+Nar vs LLC+IR), the “lung injury (pathological analysis)” value was “significantly alleviated”. In addition, the “survival of mice bearing LLC lung tumor after radiotherapy” value in experiment [5] (FIG. 5 legend) is recorded as “prolongs the survival”.
